Broadly, the EC50 is the concentration giving half of the maximal effect. What is called IC50 is the midpoint of a concentration-inhibition curve. As usually defined, the stoichiometry N is the number of molecules, sites or subunits per partner or assembly.

The record followed here is publication PMC7683545, “Human TRPC5 structures reveal interaction of a xanthine-based TRPC1/4/5 inhibitor with a conserved lipid binding site” (Communications Biology, 2020).

The target of data set [1] is T1, TRPC5 (Homo sapiens, UniProt Q9UL62, V455M/Q573T).
T1 construct: TRPC5-SYFP2 Q573T
T1 sequence (Q9UL62 1-973 V455M/Q573T): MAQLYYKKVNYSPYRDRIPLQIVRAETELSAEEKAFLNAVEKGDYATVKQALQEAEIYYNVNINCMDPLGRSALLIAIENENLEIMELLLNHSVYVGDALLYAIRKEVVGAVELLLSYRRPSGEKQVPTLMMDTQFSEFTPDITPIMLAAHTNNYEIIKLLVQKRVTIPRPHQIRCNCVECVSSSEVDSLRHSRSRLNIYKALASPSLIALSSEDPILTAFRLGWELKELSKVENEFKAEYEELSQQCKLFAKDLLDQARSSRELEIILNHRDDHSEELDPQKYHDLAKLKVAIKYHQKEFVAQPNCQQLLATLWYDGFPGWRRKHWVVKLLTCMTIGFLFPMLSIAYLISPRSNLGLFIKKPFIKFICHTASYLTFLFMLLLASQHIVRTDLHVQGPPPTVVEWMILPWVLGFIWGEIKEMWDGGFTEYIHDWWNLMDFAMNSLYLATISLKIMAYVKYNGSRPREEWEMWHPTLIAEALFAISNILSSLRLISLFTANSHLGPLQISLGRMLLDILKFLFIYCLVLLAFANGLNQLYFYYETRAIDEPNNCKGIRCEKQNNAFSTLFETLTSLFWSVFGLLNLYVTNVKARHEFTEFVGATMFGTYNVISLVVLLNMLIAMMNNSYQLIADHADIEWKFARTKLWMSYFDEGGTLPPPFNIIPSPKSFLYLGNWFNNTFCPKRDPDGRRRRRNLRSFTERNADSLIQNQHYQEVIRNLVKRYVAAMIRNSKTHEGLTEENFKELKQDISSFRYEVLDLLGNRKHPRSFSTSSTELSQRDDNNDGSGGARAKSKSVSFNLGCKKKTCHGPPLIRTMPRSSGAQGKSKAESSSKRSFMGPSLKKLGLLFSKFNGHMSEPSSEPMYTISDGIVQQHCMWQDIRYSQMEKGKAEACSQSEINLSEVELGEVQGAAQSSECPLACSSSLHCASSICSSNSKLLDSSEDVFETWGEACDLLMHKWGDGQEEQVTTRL
Kind of data set: Fura-2 intracellular calcium assay in transfected HEK […] cells. In kind it is cell-based. To be noted: read-out: AM237 EC50. Background: Calcium flux is commonly read through the fluorescence of an indicator in the cells.

Data set [2] addresses T2, TRPC5 (Homo sapiens, UniProt Q9UL62, V455M).
T2 construct: TRPC5-SYFP2, wild-type (contains the previously described V455M)
T2 sequence (Q9UL62 1-973 V455M): T1 sequence (Q9UL62 1-973 V455M/Q573T) with T573Q
The description is as above. In kind it is cell-based.

Data set [3] concerns the target T3, TRPC5 (human TRPC5:C5 channel) (Homo sapiens, UniProt Q9UL62, V455M).
T3 construct: MBP-PreS-hTRPC5Δ766–975 (C-terminally truncated), homotetramer
T3 sequence (Q9UL62 1-765 V455M): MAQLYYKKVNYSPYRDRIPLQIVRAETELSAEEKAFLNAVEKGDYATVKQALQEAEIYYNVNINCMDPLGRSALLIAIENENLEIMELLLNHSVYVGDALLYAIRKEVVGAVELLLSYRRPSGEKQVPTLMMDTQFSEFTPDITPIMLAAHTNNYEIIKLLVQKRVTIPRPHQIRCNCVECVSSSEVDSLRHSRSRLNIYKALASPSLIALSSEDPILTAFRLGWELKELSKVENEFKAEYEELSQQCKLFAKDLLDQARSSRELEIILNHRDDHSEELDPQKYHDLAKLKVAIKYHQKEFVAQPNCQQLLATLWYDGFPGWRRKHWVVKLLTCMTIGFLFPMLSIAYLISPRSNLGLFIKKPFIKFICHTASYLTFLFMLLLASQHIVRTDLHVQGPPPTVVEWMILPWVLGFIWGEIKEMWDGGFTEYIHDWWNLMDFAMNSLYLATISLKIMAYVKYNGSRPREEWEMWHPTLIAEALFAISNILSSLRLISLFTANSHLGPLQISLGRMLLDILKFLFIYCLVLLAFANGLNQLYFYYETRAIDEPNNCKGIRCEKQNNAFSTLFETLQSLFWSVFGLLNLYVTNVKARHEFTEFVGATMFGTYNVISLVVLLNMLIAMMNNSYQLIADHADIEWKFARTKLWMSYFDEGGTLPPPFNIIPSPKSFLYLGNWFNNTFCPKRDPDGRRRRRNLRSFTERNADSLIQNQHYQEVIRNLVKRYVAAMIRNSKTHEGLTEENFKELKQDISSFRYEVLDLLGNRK
Put plainly: cryo-EM structure at […] Å; also inhibition of EA-activated channel in HEK […] calcium assay. In kind it is cell-based.

Data set [4] deals with the molecule itself. Put plainly: cryo-EM structure; purified TRPC5 in PMAL-C8 at 2 mg/ml with 100 µM Pico145 (also 1 mg/ml with 50 µM Pico145 or 20 µM ZnCl2); C4 symmetry, also refined with C1.

Substitutions are numbered along the chain they refer to. Numbers in names are those of the source.

As for `Cn1c(=O)n(CCCO)c(=O)c2c1nc(Oc1ccc(Cl)c(OC(F)(F)F)c1)n2Cc1ccc(Cl)cc1` [AM237], the results for the EC50 in data set [1] and in data set [2] were 110 nM and 10.6 nM, respectively.
As to `Cn1c(=O)n(CCCO)c(=O)c2c1nc(Oc1cccc(OC(F)(F)F)c1)n2Cc1ccc(Cl)cc1` [Pico145], the IC50 in data set [3] was 4 nM.

B1: MBP-PreS-hTRPC5(Δ766–975) (complex, human, UniProt Q9UL62 1-765, looked up)
chain: T3 sequence (Q9UL62 1-765 V455M)
notes: Transient Receptor Potential Canonical 5 (TRPC5), human, C-terminally truncated (Δ766–975), carries V455M from the PCR template TRPC5-SYFP2; A PreScission protease site (PreS) lies between MBP and TRPC5; MBP, PreS and the first 16 residues of TRPC5 were not resolved in the map; Homotetrameric channel in amphipol PMAL-C8; also called human TRPC5; TRPC5:C5 channel; not shown: MBP, N-terminal, kept
On to B1, for which the “stoichiometry N” value in data set [4] stood at 4.
